Among the data in patent publication US20240239808A1 (Forma Therapeutics, Inc., priority 2021, published 2024) are IC50 values, retold here.

Structures are written as SMILES.

The target of the assay is T1, USP1, construct USP1 (1-785, GG670, 671AA)/UAF1 (1-677)-Flag (Homo sapiens, UniProt O94782, G670A/G671A).
T1 construct: USP1, construct USP1 (1-785, GG670, 671AA)/UAF1 (1-677)-Flag; Viva; purchased Viva
T1 sequence (O94782 whole entry G670A/G671A): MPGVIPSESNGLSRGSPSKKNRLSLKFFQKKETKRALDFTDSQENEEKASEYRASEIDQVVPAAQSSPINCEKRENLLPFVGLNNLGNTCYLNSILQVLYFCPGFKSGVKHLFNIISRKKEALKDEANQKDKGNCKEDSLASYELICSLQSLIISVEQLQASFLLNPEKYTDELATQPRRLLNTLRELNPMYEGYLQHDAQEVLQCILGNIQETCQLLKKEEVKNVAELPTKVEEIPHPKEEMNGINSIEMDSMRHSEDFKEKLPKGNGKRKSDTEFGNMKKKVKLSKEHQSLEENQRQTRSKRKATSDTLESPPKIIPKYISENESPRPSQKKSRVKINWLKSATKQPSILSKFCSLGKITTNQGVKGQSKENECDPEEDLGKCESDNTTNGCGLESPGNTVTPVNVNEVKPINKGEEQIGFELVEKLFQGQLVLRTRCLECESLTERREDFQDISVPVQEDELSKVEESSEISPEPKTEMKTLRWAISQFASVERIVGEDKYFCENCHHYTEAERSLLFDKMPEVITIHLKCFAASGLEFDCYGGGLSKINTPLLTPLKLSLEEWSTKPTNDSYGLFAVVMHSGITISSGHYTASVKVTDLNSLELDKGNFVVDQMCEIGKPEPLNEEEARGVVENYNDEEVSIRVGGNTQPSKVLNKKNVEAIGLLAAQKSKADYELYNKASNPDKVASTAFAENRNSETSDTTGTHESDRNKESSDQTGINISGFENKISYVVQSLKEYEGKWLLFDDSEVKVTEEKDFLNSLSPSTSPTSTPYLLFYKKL
T1 sequence (Q8TAF3 whole entry partner): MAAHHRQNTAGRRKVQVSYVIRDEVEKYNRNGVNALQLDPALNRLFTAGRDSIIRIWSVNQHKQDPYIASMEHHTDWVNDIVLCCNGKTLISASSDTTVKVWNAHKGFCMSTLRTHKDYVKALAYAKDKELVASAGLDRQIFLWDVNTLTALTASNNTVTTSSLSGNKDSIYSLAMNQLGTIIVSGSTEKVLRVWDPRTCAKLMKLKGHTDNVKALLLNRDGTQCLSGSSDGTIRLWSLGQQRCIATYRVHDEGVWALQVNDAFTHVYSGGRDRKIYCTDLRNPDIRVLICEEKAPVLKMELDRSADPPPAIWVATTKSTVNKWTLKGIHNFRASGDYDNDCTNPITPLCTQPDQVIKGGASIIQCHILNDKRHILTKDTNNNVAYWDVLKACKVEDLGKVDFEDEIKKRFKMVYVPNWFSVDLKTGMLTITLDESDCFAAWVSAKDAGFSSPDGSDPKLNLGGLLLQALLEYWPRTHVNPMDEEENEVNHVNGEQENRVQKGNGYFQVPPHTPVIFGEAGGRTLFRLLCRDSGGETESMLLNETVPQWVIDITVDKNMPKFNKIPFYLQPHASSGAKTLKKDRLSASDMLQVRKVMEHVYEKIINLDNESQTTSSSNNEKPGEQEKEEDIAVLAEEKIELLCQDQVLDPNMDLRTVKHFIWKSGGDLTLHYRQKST
The experiment in a line: Ubiquitin-Rhodamine 110 assay for USP1 activity. Type of assay: biochemical. The conditions noted are these: enzyme 25 pM, Ub-Rh110 25 nM, 30 minutes preincubation, 8- or 10-point dilution. As for the experimental part: Example A: Ubitquin-Rhodamine 110 Assay for USP1 Activity
The HTS assay was performed in a final volume of 20 μL in assay buffer containing 20 mM Tris-HCl (pH 8.0, (1M Tris-HCl, pH 8.0 solution; Corning 46-031-CM)), 2 mM CaCl2) (1M Calcium Chloride solution; Sigma #21114) 1 mM GSH (L-Glutathione reduced; Sigma #G4251), 0.01% Prionex ([…] filtered, Sigma #G-0411), and 0.01% Triton X-100. Stock compound solutions were stored at −20° C. as 10 mM in DMSO. Up to 1 month prior to the assay, 2 mM test compounds were pre-dispensed into assay plates (Black, low volume; Corning #3820) and frozen at −20° C. Pre-stamped assay plates were allowed to come to room temperature on the day of the assay. For the screen, 100 nL of 2 mM was pre-dispensed for a final screening concentration of 10 μM (DMSO(fc)=0.5%). The final concentration of the enzyme (USP1, construct USP1 (1-785, GG670, 671AA)/UAF1 (1-677)-Flag; Viva) in the assay was 100 pM. Final substrate (Ub-Rh110; Ubiquitin-Rhodamine 110, R&D Systems #U-555) concentration was 25 nM with [Ub-Rh110]<<Km. 10 μL of 2× enzyme was added to assay plates (pre-stamped with compound) either simultaneously with 2×Ub-Rh110 or preincubated with USP1 40 minutes prior to the addition of 10 μL of 2×Ub-Rh110 to compound plates. Plates were incubated stacked for 45 minutes at room temperature before fluorescence was read on the Envision (Excitation at 485 nm and Emission at 535 nm; Perkin Elmer) or on the PheraSTAR (Excitation at 485 nm and Emission at 535 nm; BMG Labtech).
Nanoliter quantities of either an 8-point or 10-point, 3-fold serial dilution in DMSO were pre-dispensed into assay plates (Perkin Elmer, ProxiPlate-384 F Plus, #6008269) for a final test concentration range of either 25 μM to 11 nM or 25 μM to 1.3 nM, respectively. The final concentration of the enzyme (USP1, construct USP1 (1-785, GG670, 671AA)/UAF1 (1-677)-Flag; Viva) in the assay was 25 pM. Final substrate (Ub-Rh110; Ubiquitin-Rhodamine 110, R&D Systems #U-555) concentration was 25 nM with [Ub-Rh110]<<Km. 5 μL of 2× enzyme was added to assay plates (pre-stamped with compound) preincubated with USP1 for 30 minutes and then 5 μL of 2×Ub-Rh110 was added to assay plates. Plates were incubated stacked for 20 minutes at room temperature before 5 μL of stop solution (final concentration of 10 mM citric acid in assay buffer (Sigma, #251275-500G)). Fluorescence was read on the Envision (Excitation at 485 nm and Emission at 535 nm; Perkin Elmer) or on the PheraSTAR (Excitation at 485 nm and Emission at 535 nm; BMG Labtech).
For both assay formats data were reported as percent inhibition compared with control wells based on the following equation: % inh=[1−((FLU−AveLow)/(AveHigh−AveLow))]×100 where FLU=measured Fluorescence, AveLow=average Fluorescence of no enzyme control (n=16), and AveHigh=average Fluorescence of DMSO control (n=16). IC50 values were determined by curve fitting of the standard 4 parameter logistic fitting algorithm included in the Activity Base software package: IDBS XE Designer Model205. Data is fitted using the Levenburg Marquardt algorithm.
Compound `CC(C)c1ncccc1-c1ncc2c(n1)N(Cc1ccc(-c3nc(C(F)(F)F)cn3C)cc1)C(=O)OC2` [Example I-8, 1-([4-[1-methyl-4-(trifluoromethyl)-1H-imidazol-2-yl]phenyl]methyl)-7-[2-(propan-2-yl)pyridin-3-yl]-1H,2H, 4H-pyrimido[4,5-d][1,3]oxazin-2-one] registered an IC50 of 10 to 100 nM.

Regarding `CC(C)c1ncccc1-c1ncc2c(n1)N(Cc1ccc(-c3nc(C(F)(F)F)cn3C3COC3)cc1)C(=O)C2` [Example I-19, 7-([4-[1-(oxetan-3-yl)-4-(trifluoromethyl)-1H-imidazol-2-yl]phenyl]methyl)-2-[2-(propan-2-yl)pyridin-3-yl]-5H,6H,7H-pyrrolo[2,3-d]pyrimidin-6-one], the IC50 lay within 100 to 1000 nM.

As for `COc1nc2cnc(-c3cccnc3C(C)C)nc2n1Cc1ccc(-c2nc(C(F)(F)F)cn2C)cc1` [Example I-17, 8-methoxy-9-([4-[1-methyl-4-(trifluoromethyl)-1H-imidazol-2-yl]phenyl]methyl)-2-[2-(propan-2-yl)pyridin-3-yl]-9H-purine], the concentration for half-maximal inhibition (IC50) fell in the range of 100 to 1000 nM.

Regarding `CC(C)c1ccccc1-c1ncc2nc(C3COC3)n(Cc3ccc(-n4cccn4)cc3)c2n1` [Example I-15, 8-(oxetan-3-yl)-2-[2-(propan-2-yl)phenyl]-9-[[4-(1H-pyrazol-1-yl)phenyl]methyl]-9H-purine], the IC50 is 100 to 1000 nM.

The compound `CC(C)c1ccccc1-c1ncc2oc(=O)n(Cc3ccc(-c4nc(C(F)(F)F)cn4C)cc3)c2n1` [Example I-12, 5-(2-isopropylphenyl)-3-(4-(1-methyl-4-(trifluoromethyl)-1H-imidazol-2-yl)benzyl)oxazolo[4,5-d]pyrimidin-2(3H)-one] came in with an IC50 not above 10 nM.

`CC(C)c1ncccc1-c1ncc2c(n1)N(Cc1ccc(-c3nc(C(F)(F)F)cn3C)cc1)C(=O)C21CC1` [Example I-11, 3′-([4-[1-methyl-4-(trifluoromethyl)-1H-imidazol-2-yl]phenyl]methyl)-5′-[2-(propan-2-yl)pyridin-3-yl]-2′,3′-dihydrospiro[cyclopropane-1,1′-pyrrolo[2,3-d]pyrimidine]-2′-one]: the IC50 fell in the range of 10 to 100 nM.

For `CC(C)c1ccccc1-c1ncc2nc(C3CNC3)n(Cc3ccc(-n4cccn4)cc3)c2n1` [Example I-14, 8-(azetidin-3-yl)-2-[2-(propan-2-yl)phenyl]-9-[[4-(1H-pyrazol-1-yl)phenyl]methyl]-9H-purine], the half-maximal inhibitory concentration (IC50) was in the range of 100 to 1000 nM.

Regarding `CC(C)c1ncccc1-c1ncc2c(n1)N(Cc1ccc(-c3nc(C(F)(F)F)cn3C)cc1)C(=O)CC2` [Example I-20, 8-([4-[1-methyl-4-(trifluoromethyl)-1H-imidazol-2-yl]phenyl]methyl)-2-[2-(propan-2-yl)pyridin-3-yl]-5H,6H,7H,8H-pyrido[2,3-d]pyrimidin-7-one], the IC50 lay within 10 to 100 nM.

Compound `CC(C)c1ncccc1-c1ncc2c(n1)N(Cc1ccc(-c3nc(C(F)(F)F)cn3C)cc1)CCO2` [Example I-2, 3-[8-([4-[1-methyl-4-(trifluoromethyl)-1H-imidazol-2-yl]phenyl]methyl)-6H,7H,8H-pyrimido[5,4-b][1,4]oxazin-2-yl]-2-(propan-2-yl)pyridine] displayed an IC50 not above 10 nM.

For the compound `CC(C)c1ccccc1-c1ncc2c(n1)N(Cc1ccc(-c3nc(C(F)(F)F)cn3C)cc1)C(=O)C2` [Example I-18, 7-([4-[1-methyl-4-(trifluoromethyl)-1H-imidazol-2-yl]phenyl]methyl)-2-[2-(propan-2-yl)phenyl]-5H,6H,7H-pyrrolo[2,3-d]pyrimidin-6-one], the IC50 was not above 10 nM.

The compound `CC(C)c1ccccc1-c1ncc2sc(=O)n(Cc3ccc(-c4nc(C(F)(F)F)cn4C)cc3)c2n1` [Example I-1, 5-(2-isopropylphenyl)-3-(4-(1-methyl-4-(trifluoromethyl)-1H-imidazol-2-yl)benzyl)thiazolo[4,5-d]pyrimidin-2(3H)-one] had an IC50 not above 10 nM.

As for `CC(C)c1ncccc1-c1ncc2cnn(Cc3ccc(-c4nc(C(F)(F)F)cn4C)cc3)c2n1` [Example I-10, 3-[1-([4-[1-methyl-4-(trifluoromethyl)-1H-imidazol-2-yl]phenyl]methyl)-1H-pyrazolo[3,4-d]pyrimidin-6-yl]-2-(propan-2-yl)pyridine], the IC50 was 10 to 100 nM.

Regarding `CC(C)c1ncccc1-c1ncc2c(n1)N(Cc1ccc(-c3nc(C(F)(F)F)cn3C)cc1)C(=O)C(C)(C)O2` [Example I-5, 6,6-dimethyl-8-([4-[1-methyl-4-(trifluoromethyl)-1H-imidazol-2-yl]phenyl]methyl)-2-[2-(propan-2-yl)pyridin-3-yl]-6H,7H,8H-pyrimido[5,4-b][1,4]oxazin-7-one], the IC50 is 10 to 100 nM.

As to `CC(C)c1ccccc1-c1ncc2c(n1)N(Cc1ccc(-c3nc(C(F)(F)F)cn3C)cc1)C(=O)OC2` [Example I-7, 1-([4-[1-methyl-4-(trifluoromethyl)-1H-imidazol-2-yl]phenyl]methyl)-7-[2-(propan-2-yl)phenyl]-1H,2H, 4H-pyrimido[4,5-d][1,3]oxazin-2-one], the IC50 was not above 10 nM.

In the case of `CC(C)c1ccccc1-c1ncc2c(n1)N(Cc1ccc(-c3nc(C(F)(F)F)cn3C)cc1)C(=O)N(C)C2` [Example I-6, 3-methyl-1-([4-[1-methyl-4-(trifluoromethyl)-1H-imidazol-2-yl]phenyl]methyl)-7-[2-(propan-2-yl)phenyl]-1H,2H,3H,4H-[1,3]diazino[4,5-d]pyrimidin-2-one], the IC50 was 10 to 100 nM.

In turn, `CC(C)c1ncccc1-c1ncc2ccn(Cc3ccc(-c4nc(C(F)(F)F)cn4C)cc3)c2n1` [Example I-9, 3-[7-([4-[1-methyl-4-(trifluoromethyl)-1H-imidazol-2-yl]phenyl]methyl)-7H-pyrrolo[2,3-d]pyrimidin-2-yl]-2-(propan-2-yl)pyridine] registered an IC50 not above 10 nM.

Regarding `COc1ncnc(C2CC2)c1-c1ncc2sc(=O)n(Cc3ccc(-c4nc(C(F)(F)F)cn4C)cc3)c2n1` [Example I-22, 5-(4-cyclopropyl-6-methoxypyrimidin-5-yl)-3-(4-(1-methyl-4-(trifluoromethyl)-1H-imidazol-2-yl)benzyl)thiazolo[4,5-d]pyrimidin-2(3H)-one], the IC50 is not above 10 nM.

Compound `CC(C)c1ncccc1-c1ncc2c(n1)N(Cc1ccc(-c3nc(C(F)(F)F)cn3C)cc1)C(=O)CO2` [Example I-4, 8-([4-[1-methyl-4-(trifluoromethyl)-1H-imidazol-2-yl]phenyl]methyl)-2-[2-(propan-2-yl)pyridin-3-yl]-6H,7H,8H-pyrimido[5,4-b][1,4]oxazin-7-one] came in with a 50% inhibitory concentration (IC50) of 10 to 100 nM.

Compound `CC(C)c1ncccc1-c1ncc2oc(=O)n(Cc3ccc(-c4nc(C(F)(F)F)cn4C)cc3)c2n1` [Example I-13] showed a half-maximal inhibitory concentration (IC50) of 100 to 1000 nM.

In the case of `COc1ncnc(C2CC2)c1-c1ncc2sc(=O)n(Cc3ccc(-n4nc(C(F)(F)F)cc4C)cc3)c2n1` [Example I-21, 5-(4-cyclopropyl-6-methoxypyrimidin-5-yl)-3-(4-(5-methyl-3-(trifluoromethyl)-1H-pyrazol-1-yl)benzyl)thiazolo[4,5-d]pyrimidin-2(3H)-one], the concentration for half-maximal inhibition (IC50) is not above 10 nM.

`CC(C)c1ncccc1-c1ncc2c(n1)N(Cc1ccc(-c3nc(C(F)(F)F)cn3C)cc1)C(=O)C2` [Example I-16, 7-([4-[1-methyl-4-(trifluoromethyl)-1H-imidazol-2-yl]phenyl]methyl)-2-[2-(propan-2-yl)pyridin-3-yl]-5H,6H,7H-pyrrolo[2,3-d]pyrimidin-6-one] registered a 50% inhibitory concentration (IC50) of 10 to 100 nM.
